These results are taken from patent US20250188171A1, “COMBINATION THERAPY INCLUDING ANTIBODIES THAT BIND EGFR AND CMET” (MERUS N.V., priority 2022, published 2025).

The target of one data set is cMET (Homo sapiens, UniProt P08581). The following applies: reported; cited from earlier work.
The next data set relates to cMET and EGFR. The following applies: Moores et al. (2016); cited from earlier work.
In data set [1] the test system is LXFE2478 NSCLC PDX tumor model.
Protocol: This model carries mutation EGFRex20ins (M766_A767insASV).
Insertion of 9 nucleotides in exon 20 in this model affects the EGFR tyrosine kinase domain (M766X) and confers resistance to small molecule EGFR inhibitors. This model carries no mutations in B-RAF, H-/N- and KRAS and PTEN genes (whole exome sequencing was done for both patient tumor and tumor xenograft with matching results).
Antitumor efficacy of all groups was assessed using the control vehicle/placebo buffer group as a reference. Tumor growth inhibition was determined by the comparison of RTVs of the test groups with the control group and is expressed as minimum T/C value in percent. For the evaluation of the statistical significance of antitumor efficacy, the non-parametric Kruskal-Wallis test followed by Dunn's method for multiple comparisons was performed. […] Statistical analysis was only carried out if at least 50% of the initially randomized animals still remained in the relevant group. Comparisons between test groups were carried out for the same days. All p-values <0.05 were considered statistically significant. Statistical calculations were performed using GraphPad Prism bioanalytic software (version 9.10 for Microsoft Windows, GraphPad Software, San Diego, California, USA.
Tumors were harvested from the donor PDX mice, cut into fragments (LXFE2478: 3-4 mm edge length) and inoculated into recipient nude mice subcutaneously (SC) in the flank. When the tumor implants reached approximately 80-200 mm3 in a sufficient number of animals, mice were assigned to groups. Randomization was performed based on “stratified distribution” method. Treatment started on the same day as randomization (day 0).
Treatment started the same day as enrollment (day 0). Mice were terminated during the observation period if the tumor volume was >1000 mm3.
Antibody was administered once a week intra peritoneally (IP) at 5 mg/kg and 25 mg/kg dose over a period of 5 weeks.
After randomization, animals were routinely monitored for morbidity and mortality, they were weighted twice a week, and tumor volumes (TV) were determined twice a week with a caliper. Relative body weight (RBW) was calculated by dividing the absolute weight or volume on a certain day by the absolute weight at day 0 multiplied by 100. Relative tumor volumes (RTV) were calculated by dividing the absolute individual tumor volume on a certain day by the absolute tumor volume at day 0 multiplied by 100.
For mice that lost >10% body weight, weight was measured daily, and animals had facilitated access to feed and water, and access to DietGel.
A dose-free observation period was included to compare duration of response and relapse (tumor re-growth) after treatment end. […]
For the next data set, the system named is HCC827-ER1 tumor cells. The data set is described as follows: HCC827-ER1 NSCLC CDX model with EGFR exon 19 deletion.
Another data set concerns the target mouse EGFR (Mus musculus, UniProt Q01279). The data set is described as follows: Binding to mouse EGFR. The following applies: in words.

cMET, sequence (P08581 25-1390): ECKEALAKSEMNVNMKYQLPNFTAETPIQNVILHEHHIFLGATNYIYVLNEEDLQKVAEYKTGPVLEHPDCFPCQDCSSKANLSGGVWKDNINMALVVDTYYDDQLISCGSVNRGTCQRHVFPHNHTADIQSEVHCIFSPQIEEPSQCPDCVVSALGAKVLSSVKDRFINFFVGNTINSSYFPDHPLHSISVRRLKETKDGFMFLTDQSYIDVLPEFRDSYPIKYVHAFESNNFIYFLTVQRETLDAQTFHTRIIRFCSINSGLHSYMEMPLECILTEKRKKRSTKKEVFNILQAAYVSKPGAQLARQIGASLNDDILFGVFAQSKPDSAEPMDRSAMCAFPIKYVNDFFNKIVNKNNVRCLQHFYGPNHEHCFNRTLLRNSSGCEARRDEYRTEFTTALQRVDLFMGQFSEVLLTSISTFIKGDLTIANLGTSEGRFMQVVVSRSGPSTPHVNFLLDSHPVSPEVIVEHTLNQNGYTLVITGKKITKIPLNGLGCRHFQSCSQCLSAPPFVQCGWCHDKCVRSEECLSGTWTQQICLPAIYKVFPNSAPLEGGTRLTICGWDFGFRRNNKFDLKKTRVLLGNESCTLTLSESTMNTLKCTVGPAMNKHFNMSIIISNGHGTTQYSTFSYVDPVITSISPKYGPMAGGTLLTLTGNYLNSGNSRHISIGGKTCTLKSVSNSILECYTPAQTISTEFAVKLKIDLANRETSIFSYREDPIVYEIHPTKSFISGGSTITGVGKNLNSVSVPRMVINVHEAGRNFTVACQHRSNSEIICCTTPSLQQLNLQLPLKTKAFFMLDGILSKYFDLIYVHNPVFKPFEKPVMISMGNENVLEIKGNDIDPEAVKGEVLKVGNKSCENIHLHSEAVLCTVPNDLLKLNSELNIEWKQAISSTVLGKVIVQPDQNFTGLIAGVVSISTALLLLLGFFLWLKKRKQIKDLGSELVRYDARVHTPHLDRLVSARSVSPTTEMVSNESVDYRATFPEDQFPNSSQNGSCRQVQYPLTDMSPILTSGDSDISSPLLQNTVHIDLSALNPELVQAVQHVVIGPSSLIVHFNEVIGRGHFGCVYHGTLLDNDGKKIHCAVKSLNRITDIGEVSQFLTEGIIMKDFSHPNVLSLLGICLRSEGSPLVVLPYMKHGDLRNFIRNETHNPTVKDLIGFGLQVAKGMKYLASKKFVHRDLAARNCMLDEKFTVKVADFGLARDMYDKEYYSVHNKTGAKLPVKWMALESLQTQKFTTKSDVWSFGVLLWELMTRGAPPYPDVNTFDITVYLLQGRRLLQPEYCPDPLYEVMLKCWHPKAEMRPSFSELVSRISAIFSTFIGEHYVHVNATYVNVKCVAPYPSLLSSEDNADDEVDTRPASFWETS
Description for HCC827-ER1 tumor cells: The model HCC827-ER1 was generated in BALB/c nude mice. It carries an EGFR mutation in exon 19 (deletion E746-A750), and has amplified c-MET copy number and Axl expression compared to the wild type HCC827 cell line.
Each mouse was inoculated in the right front flank region with HCC827-ER1 tumor cells mixed with Matrigel for tumor development. […] The date of randomization was denoted as day 0 and dosing was initiated from day 0. […] The dose-free observation period was included to compare duration of response and relapse (tumor re-growth) after treatment end. Mice with tumor volume exceeding 1500 mm^3, or with body weight loss over 20% relative to the weight at the first day of treatment were terminated during the treatment period. Antibody was administered twice a week intra peritoneally (i.p.) at 25 mg/kg dose over a period of 21 days, with a total of 7 doses. […] Eight mice in group 1 were treated with vehicle control (placebo buffer). Tumor volume (mm^3) was measured twice per week in 2 dimensions using a caliper. The animals were checked for any effects of tumor growth and treatments on behavior such as mobility, food and water consumption, body weight gain/loss, eye/hair matting and any other abnormalities. Body weights were measured twice per week after randomization.

Turning to “5D5: reference anti-cMET antibody, Sema Domain, HGF block”, the MOA result with cMET was “HGF block”.

Turning to “JNJ-61186372: bispecific cMET×EGFR antibody produced by controlled Fab-arm exchange (Moores et al 2016)”, the “affinity imbalance, greater affinity for cMET than EGFR” value in the data set with cMET and EGFR is recorded as “approximately 40 ×”.

`C=CC(=O)Nc1cc(Nc2nccc(-c3cn(C)c4ccccc34)n2)c(OC)cc1N(C)CCN(C)C` [Osimertinib]: in data set [1] (5 and 25 mg/kg), the “anti-tumor efficacy, monotherapy” value is given as “dose-dependent anti-tumor efficacy”. Besides, the body weight loss in data set [1] (Osimertinib 25 mg/kg PO QD) is given as > 10%. Also, the “sensitivity of the model to treatment” value in data set [1] (at 5 mg/kg) is on record as “reduced sensitivity”. For the same molecule, in data set [1] (mouse, in vivo), the “xenograft progression to 750 mm3, mice” value is reported as 6/9. Also, the adverse events entry in the data set on HCC827-ER1 tumor cells (25 mg/kg) is given as “tumor scabbing or tumor ulceration in some mice”. For the same molecule, in the data set on HCC827-ER1 tumor cells (mouse, in vivo), the “effect on tumor volume” value is recorded as “tumor regression”.

“zalutumumab: EGFR monoclonal antibody in clinical development”: in the data set with mouse EGFR, the “binding to mouse EGFR” value is on record as “do not”.
